Assay [1] concerns the target full-length MALT1 protein (Strep-MALT1(1-824)-His) (Homo sapiens (Human), UniProt Q9UDY8). The assay is described as follows: MALT1 Biochemical Protease Assay (Ac-LRSR-AMC substrate). Particulars: 10 nM FL MALT1, 200 μM Ac-LRSR-AMC, 4 h at RT; read-out: MALT1_Biochemical activity (Ac-LRSR-amc) IC50. An outline of the steps:
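Full-length MALT1 pre-incubated with compounds (30 μM to 0.5 nM, 11 threefold steps) for 50 min at RT. After Ac-LRSR-AMC was added, the reaction ran 4 h at RT and AMC fluorescence was read. IC50 and Hill slope from curve fitting against no-enzyme and no-compound controls.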

Assay [2] concerns IL6 secretion by OCI-LY3 ABC-DLBCL cells. In words: Human IL6 Mesoscale assay (OCI-LY3). The class given is cell-based. Conditions: Homo sapiens, 24 h. On the procedure:
(§1) NFKB signaling regulates the secretion of multiple cytokines, including IL6 and IL10. Secretion of the cytokines IL6 and IL10 by TMD8 or OCI-LY3 ABC-DLBCL cells was measured using a mesoscale assay. Inhibition of NFKB signaling by MALT1 or BTK inhibitors results in a decrease of IL6/10 secretion.
(§2) TMD8 or OCI-LY3 cells were propagated in RPMI-1640 (Sigma Aldrich) supplemented with 10% fetal bovine serum (HyClone), 1 mM sodium pyruvate (Invitrogen), 2 mM L-glutamine (Sigma Aldrich) and 1% PenStrep (Sigma Aldrich). Cell passage number should not exceed 30. Cells should be kept between 0.5-2.5 million cells per mL during culturing and cells should be supplemented every 2-3 days with fresh 50 μM beta-mercaptoenthanol. No beta-mercaptoethanol was used during the mesoscale assay.
(§3) For the Mesoscale assay, 100,000 TMD8 or OCI-LY3 cells were seeded per well into black-colored 96-well plates with clear bottom (Corning #3904) and test compounds were added in 9 dilution steps (1:2) ranging from 15 μM to 58.6 nM (final DMSO concentration 0.3%). DMSO control wells were used to determine the maximum signal (High Control (HC)). Treatment with the BTK inhibitor RN486 in a dose range from 30 nM to 131 pM (9 dilutions of 1:2) served as a positive control for NFKB pathway inhibition and was used to determine the maximum inhibition (Low Control (LC)). Compounds and cells were incubated for 24 h at 37° C. and 5% CO2 (assay volume is 150 μL). After 24 h of incubation 50 μL of the supernatant was transferred to a MSD plate (V-Plex Proinflammation Panel 1 (human) kit, Mesoscale (MSD)) and incubated for 2 h with vigorous shaking (600 rpm) at room temperature. Following incubation, plates were washed 3× with PBS+0.05% Tween-20 and 25 μL detection antibody solution (IL6 & IL10 antibodies in diluent 3 (MSD)) was added per well followed by 2 h of incubation with vigorous shaking (600 rpm) at room temperature. After 3× washes with PBS+0.05% Tween-20, plates were incubated with 150 μL 2× Read Buffer T and read on SECTOR imager.

Assay [3] relates to IL10 secretion by OCI-LY3 ABC-DLBCL cells. The assay is described as follows: Human IL10 Mesoscale assay (OCI-LY3). The class given is cell-based. Particulars: Homo sapiens, 24 h. On the procedure:
as §1, §2, §3

Each structure is given as a SMILES string. Some results are limits rather than exact numbers.

Sequence of full-length MALT1 protein (Strep-MALT1(1-824)-His) (Q9UDY8 whole entry): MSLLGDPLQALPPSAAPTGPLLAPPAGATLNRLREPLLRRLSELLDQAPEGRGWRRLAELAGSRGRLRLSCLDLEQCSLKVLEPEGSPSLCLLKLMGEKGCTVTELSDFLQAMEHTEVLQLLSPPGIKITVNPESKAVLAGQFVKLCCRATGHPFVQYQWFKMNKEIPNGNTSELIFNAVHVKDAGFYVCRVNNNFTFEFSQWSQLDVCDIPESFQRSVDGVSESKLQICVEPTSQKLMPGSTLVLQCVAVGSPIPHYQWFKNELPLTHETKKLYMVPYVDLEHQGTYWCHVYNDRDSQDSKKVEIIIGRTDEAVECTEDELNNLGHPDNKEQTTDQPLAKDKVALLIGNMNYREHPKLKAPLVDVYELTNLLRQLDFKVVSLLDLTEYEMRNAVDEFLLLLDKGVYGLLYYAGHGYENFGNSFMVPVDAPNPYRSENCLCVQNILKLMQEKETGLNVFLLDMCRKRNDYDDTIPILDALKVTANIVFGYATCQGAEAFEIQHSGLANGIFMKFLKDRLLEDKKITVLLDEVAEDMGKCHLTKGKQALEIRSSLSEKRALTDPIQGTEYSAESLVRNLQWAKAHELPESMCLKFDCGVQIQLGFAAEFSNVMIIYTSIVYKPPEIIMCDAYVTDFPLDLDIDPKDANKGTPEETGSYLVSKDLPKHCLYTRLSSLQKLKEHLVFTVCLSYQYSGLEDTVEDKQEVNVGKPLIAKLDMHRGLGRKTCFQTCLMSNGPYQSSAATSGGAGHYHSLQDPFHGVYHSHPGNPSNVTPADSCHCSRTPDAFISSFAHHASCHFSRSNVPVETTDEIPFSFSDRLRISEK

The term IC50 denotes the concentration that gives 50% inhibition. Turning to `NC(=O)c1cn(-c2ncc(NC(=O)c3cnn(-c4cccc5ncccc45)c3C(F)(F)F)cc2Cl)nn1` [Cpd 246, 1-(3-chloro-5-(1-(quinolin-5-yl)-5-(trifluoromethyl)-1H-pyrazole-4-carboxamido)pyridin-2-yl)-1H-1,2,3-triazole-4-carboxamide], the IC50 in assay [1] is 380 nM; in assay [2], 135 nM; in assay [3], 63 nM.
For `N#Cc1cc(NC(=O)c2cnn(-c3ccnc4nccn34)c2C(F)(F)F)cnc1-n1nccn1` [Cpd 250, N-(5-cyano-6-(2H-1,2,3-triazol-2-yl)pyridin-3-yl)-1-(imidazo[1,2-a]pyrimidin-5-yl)-5-(trifluoromethyl)-1H-pyrazole-4-carboxamide] the same measures were 316 nM, 269 nM and 407 nM.
On to `COc1cc(NC(=O)c2cnn(-c3cccc4ncccc34)c2C(F)(F)F)cnc1-n1nccn1` [Cpd 251, N-(5-methoxy-6-(2H-1,2,3-triazol-2-yl)pyridin-3-yl)-1-(quinolin-5-yl)-5-(trifluoromethyl)-1H-pyrazole-4-carboxamide], for which the IC50 in assay [1] is 302 nM; in assay [2], 2190 nM; in assay [3] it was 2240 nM.
For `Cc1nc(-n2nccn2)c(Cl)cc1NC(=O)c1cnn(-c2cccc3scnc23)c1C(F)(F)F` [Cpd 252, 1-(benzo[d]thiazol-4-yl)-N-(5-chloro-2-methyl-6-(2H-1,2,3-triazol-2-yl)pyridin-3-yl)-5-(trifluoromethyl)-1H-pyrazole-4-carboxamide], in that order: 282 nM, 158 nM and 123 nM.
For `COCc1cnnn1-c1ncc(NC(=O)c2cnn(-c3cccc4ncccc34)c2C(F)(F)F)cc1Cl` [Cpd 253, N-(5-chloro-6-(5-(methoxymethyl)-1H-1,2,3-triazol-1-yl)pyridin-3-yl)-1-(quinolin-5-yl)-5-(trifluoromethyl)-1H-pyrazole-4-carboxamide], in that order: 282 nM, greater than 15100 nM and 12600 nM.
For `Cc1nc2cccc(-n3ncc(C(=O)Nc4cnc(-n5nccn5)c(C#N)c4)c3C(F)(F)F)n2n1` [Cpd 254, N-(5-cyano-6-(2H-1,2,3-triazol-2-yl)pyridin-3-yl)-1-(2-methyl-[1,2,4]triazolo[1,5-a]pyridin-5-yl)-5-(trifluoromethyl)-1H-pyrazole-4-carboxamide] the same measures were 282 nM, 81 nM and 79 nM.
As for `Cn1nc(-c2ncc(NC(=O)c3cnn(-c4cccc5ncccc45)c3C(F)(F)F)cc2C#N)cc1C(=O)O` [Cpd 255, 3-(3-cyano-5-(1-(quinolin-5-yl)-5-(trifluoromethyl)-1H-pyrazole-4-carboxamido)pyridin-2-yl)-1-methyl-1H-pyrazole-5-carboxylic acid], the IC50 in assay [1] came to 275 nM; in assay [2], 59 nM; in assay [3], 41 nM.
For `COC(=O)c1cnn(-c2ccc(NC(=O)c3cnn(-c4cccc5ncccc45)c3C(F)(F)F)cc2Cl)n1` [Cpd 256, methyl 2-(2-chloro-4-(1-(quinolin-5-yl)-5-(trifluoromethyl)-1H-pyrazole-4-carboxamido)phenyl)-2H-1,2,3-triazole-4-carboxylate] the same measures were 240 nM, 257 nM and 240 nM.
For `Cn1ncc2ccnc(-n3ncc(C(=O)Nc4cnc(-n5nccn5)c(C#N)c4)c3C(F)(F)F)c21` [Cpd 259, N-(5-cyano-6-(2H-1,2,3-triazol-2-yl)pyridin-3-yl)-1-(1-methyl-1H-pyrazolo[3,4-c]pyridin-7-yl)-5-(trifluoromethyl)-1H-pyrazole-4-carboxamide] the same measures were 219 nM, 145 nM and 151 nM.
For `N#Cc1cc(NC(=O)c2cnn(-c3ccnc4cn[nH]c34)c2C(F)(F)F)cnc1-n1nccn1` [Cpd 262, N-(5-cyano-6-(2H-1,2,3-triazol-2-yl)pyridin-3-yl)-1-(1H-pyrazolo[4,3-b]pyridin-7-yl)-5-(trifluoromethyl)-1H-pyrazole-4-carboxamide] the same measures were 191 nM, 182 nM and 129 nM.
Consider `Cn1nc(-n2ncc(C(=O)Nc3cnc(-n4nccn4)c(C#N)c3)c2C(F)(F)F)c2ccccc21` [Cpd 266, N-(5-cyano-6-(2H-1,2,3-triazol-2-yl)pyridin-3-yl)-1-(1-methyl-1H-indazol-3-yl)-5-(trifluoromethyl)-1H-pyrazole-4-carboxamide], for which the IC50 was determined as 158 nM in assay [1], 186 nM in assay [2] and 178 nM in assay [3].
For `N#Cc1cc(NC(=O)c2cnn(-c3ccnc4cccnc34)c2C(F)(F)F)cnc1-n1nccn1` [Cpd 269, N-(5-cyano-6-(2H-1,2,3-triazol-2-yl)pyridin-3-yl)-1-(1,5-naphthyridin-4-yl)-5-(trifluoromethyl)-1H-pyrazole-4-carboxamide], in that order: 155 nM, 83 nM and 85 nM.
For `CN(C)Cc1cnnn1-c1ncc(NC(=O)c2cnn(-c3cccc4ncccc34)c2C(F)(F)F)cc1Cl` [Cpd 270, N-(5-chloro-6-(5-((dimethylamino)methyl)-1H-1,2,3-triazol-1-yl)pyridin-3-yl)-1-(quinolin-5-yl)-5-(trifluoromethyl)-1H-pyrazole-4-carboxamide] the same measures were 145 nM, 170 nM and 98 nM.
For `Cc1nc2cccc(-n3ncc(C(=O)Nc4cnc(-n5nccn5)c(C#N)c4)c3C(F)(F)F)c2o1` [Cpd 271, N-(5-cyano-6-(2H-1,2,3-triazol-2-yl)pyridin-3-yl)-1-(2-methylbenzo[d]oxazol-7-yl)-5-(trifluoromethyl)-1H-pyrazole-4-carboxamide], in that order: 145 nM, 112 nM and 95 nM.
Consider `NCc1cnn(-c2ncc(NC(=O)c3cnn(-c4cccc5ncccc45)c3C(F)(F)F)cc2Cl)n1` [Cpd 272, N-(6-(4-(aminomethyl)-2H-1,2,3-triazol-2-yl)-5-chloropyridin-3-yl)-1-(quinolin-5-yl)-5-(trifluoromethyl)-1H-pyrazole-4-carboxamide], for which the IC50 in assay [1] came out at 145 nM; in assay [2], 126 nM; in assay [3], 87 nM.
For `Cn1ccc(-c2ncc(NC(=O)c3cnn(-c4ccc(F)c5ncccc45)c3C(F)(F)F)cc2Cl)n1` [Cpd 273, N-(5-chloro-6-(1-methyl-1H-pyrazol-3-yl)pyridin-3-yl)-1-(8-fluoroquinolin-5-yl)-5-(trifluoromethyl)-1H-pyrazole-4-carboxamide], in that order: 145 nM, 85 nM and 66 nM.
For `N#Cc1cc(NC(=O)c2cnn(-c3cccc4ncnn34)c2C(F)(F)F)cnc1-n1nccn1` [Cpd 274, 1-([1,2,4]triazolo[1,5-a]pyridin-5-yl)-N-(5-cyano-6-(2H-1,2,3-triazol-2-yl)pyridin-3-yl)-5-(trifluoromethyl)-1H-pyrazole-4-carboxamide], in that order: 141 nM, 2750 nM and 3160 nM.
For `N#Cc1cc(NC(=O)c2cnn(-c3ccnc4cnccc34)c2C(F)(F)F)cnc1-n1nccn1` [Cpd 276, N-(5-cyano-6-(2H-1,2,3-triazol-2-yl)pyridin-3-yl)-1-(1,7-naphthyridin-4-yl)-5-(trifluoromethyl)-1H-pyrazole-4-carboxamide] the same measures were 138 nM, 186 nM and 117 nM.
As for `Nc1nc2cccc(-n3ncc(C(=O)Nc4cnc(-n5nccn5)c(Cl)c4)c3C(F)(F)F)c2s1` [Cpd 278, 1-(2-aminobenzo[d]thiazol-7-yl)-N-(5-chloro-6-(2H-1,2,3-triazol-2-yl)pyridin-3-yl)-5-(trifluoromethyl)-1H-pyrazole-4-carboxamide], the IC50 in assay [1] was found to be 129 nM; in assay [2], 141 nM; in assay [3], 219 nM.

Source of the values: US10954214B2 (Janssen Pharmaceutica NV, priority 2016, dated 2021).
